Laboratory results taken from patent EP0187355A1, “Process for preparing beta-lactam antibiotics” (E.R. Squibb & Sons, Inc., priority 1981, dated 1982).
Structures can show the parent of a compound that is named as a salt.

Assays:
Assay in all cases: MIC, agar dilution
Assay type in all cases: cell-based
[1] = test system: Acinetobacter calcoaceticus, 8333; details: Acinetobacter calcoaceticus, 8333, 18 h, K-10 agar, 10^4 CFU, 37°C, read-out: M.I.C.
Method in brief: (§1)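 Test strains are first grown in broth at 37°C for 18–20 hours, then diluted 1:100. Compounds are serially halved and mixed into K-10 agar at final levels from 100 to 0.05 µg/ml. Each plate receives about 10^4 CFU per organism, and growth is scored after 18 hours at 37°C.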

[2] = test system: Citrobacter freundii, 9518; details: K-10 agar, 10^4 CFU, 37°C, 18 hours, read-out: M.I.C.
Method in brief: as §1

[3] = test system: Enterobacter aerogenes, 10078; details: Klebsiella aerogenes, 10078, 18 h, Enterobacter aerogenes, 10078; K-10 agar, 10^4 CFU, 37°C, 18 hours; read-out: M.I.C.
Method in brief: as §1

Escherichia coli, 10857 = details: Escherichia coli, 10857, 18 h, K-10 agar, 10^4 CFU, 37°C
Method in brief: as §1

Escherichia coli, 10896 = details: K-10 agar, 10^4 CFU, 37°C, 18 hours
Method in brief: as §1

Escherichia coli, 10909 = details: K-10 agar, 10^4 CFU, 37°C, 18 hours
Method in brief: as §1

Escherichia coli, 8294 = details: Escherichia coli, 8294, 18 h, K-10 agar, 10^4 CFU, 37°C
Method in brief: as §1

[4] = test system: Klebsiella aerogenes, 10440; details: K-10 agar, 10^4 CFU, 37°C, 18 hours, read-out: M.I.C.
Method in brief: as §1

[5] = test system: Klebsiella pneumoniae, 9527; details: Klebsiella pneumoniae, 9527, 18 h, K-10 agar, 10^4 CFU, 37°C, read-out: M.I.C.
Method in brief: as §1

Proteus mirabilis, 3855 = details: Proteus mirabilis, 3855, 18 h, K-10 agar, 10^4 CFU, 37°C, read-out: M.I.C.
Method in brief: as §1

Proteus rettgeri, 8479 = details: Providencia rettgeri, K-10 agar, 10^4 CFU, 37°C, 18 hours, read-out: M.I.C.
Method in brief: as §1

Proteus vulgaris, 9416 = details: K-10 agar, 10^4 CFU, 37°C, 18 hours, read-out: M.I.C.
Method in brief: as §1

[6] = test system: Pseudomonas aeruginosa, 8329; details: K-10 agar, 10^4 CFU, 37°C, 18 hours, read-out: M.I.C.
Method in brief: as §1

[7] = test system: Pseudomonas aeruginosa, 9545; details: Pseudomonas aeruginosa, 9545, 18 h, K-10 agar, 10^4 CFU, 37°C, read-out: M.I.C.
Method in brief: as §1

Salmonella typhosa, 1195 = details: Salmonella enterica, TYPHOSA, 18 h, K-10 agar, 10^4 CFU, 37°C
Method in brief: as §1

[8] = test system: Serratia marcescens, 9783; details: Serratia marcescens, 9783, 18 h, K-10 agar, 10^4 CFU, 37°C, read-out: M.I.C.
Method in brief: as §1

Shigella sonnei, 8449 = details: Shigella sonnei, 8449, 18 h, K-10 agar, 10^4 CFU, 37°C
Method in brief: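 MIC, the lowest compound concentration preventing visible growth, is read after plates incubate 18 h at 37°C. Plates hold K-10 agar with twofold drug dilutions spanning 100 to 0.05 µg/ml, each spot-inoculated with 10^4 CFU.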

[9] = test system: Staphylococcus aureus, 10165; details: Staphylococcus aureus, 10165; K-10 agar, 10^4 CFU, 37°C, 18 hours; read-out: M.I.C.
Method in brief: as §1

[10] = test system: Staphylococcus aureus, 1276; details: Staphylococcus aureus, 1276; K-10 agar, 10^4 CFU, 37°C, 18 hours; read-out: M.I.C.
Method in brief: as §1

[11] = test system: Staphylococcus aureus, 2399; details: Staphylococcus aureus, 2399, 18 h, Staphylococcus aureus, 2399; K-10 agar, 10^4 CFU, 37°C, 18 hours; read-out: M.I.C.
Method in brief: as §1

[12] = test system: Staphylococcus aureus, 2400; details: Staphylococcus aureus, 2400; K-10 agar, 10^4 CFU, 37°C, 18 hours; read-out: M.I.C.
Method in brief: as §1

[13] = test system: Streptococcus faecalis, 9011; details: Enterococcus faecalis; Streptococcus faecalis, 9011; K-10 agar, 10^4 CFU, 37°C, 18 hours; read-out: M.I.C.
Method in brief: as §1

[14] = test system: Enterobacter cloacae, 8236; details: Enterobacter cloacae, 8236, 18 h, K-10 agar, 10^4 CFU, 37°C
Method in brief: (§2)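 Broth cultures grown 18-20 h at 37°C, diluted 1:100 in K-10 broth, applied by multipoint inoculator at 10^4 CFU onto K-10 agar holding twofold compound dilutions, 100 to 0.05 µg/ml final. MIC taken as lowest concentration inhibiting growth.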

Micrococcus luteus, 2495 = details: Micrococcus luteus, 2495, 18 h, K-10 agar, 10^4 CFU, 37°C, read-out: M.I.C.
Method in brief: as §2

[15] = test system: Streptococcus agalactiae, 9287; details: Streptococcus agalactiae, 9287, 18 h, K-10 agar, 10^4 CFU, 37°C, read-out: M.I.C.
Method in brief: as §2

With C[C@H]1[C@H](NC(=O)C(=O)c2csc(N)n2)C(=O)N1S(=O)(=O)O [Example 27, (3S-trans)-3-[[(2-Amino-4-thiazolyl)oxoacetyl]-amino]-4-methyl-2-oxo-1-azetidinesulfonic acid, potassium salt] the MIC [1] was greater than 100 µg/mL, the MIC [2] was 3.1 µg/mL and the MIC [3] was 6.3 µg/mL. It also gave an MIC (Escherichia coli, 10857) of 3.1 µg/mL, an MIC (Escherichia coli, 10896) of 3.1 µg/mL and an MIC (Escherichia coli, 10909) of 1.6 µg/mL. The MIC (Escherichia coli, 8294) was 6.3 µg/mL, the MIC [4] was 6.3 µg/mL and the MIC [5] was 6.3 µg/mL. It also gave an MIC (Proteus mirabilis, 3855) of 3.1 µg/mL, an MIC (Proteus rettgeri, 8479) of 0.4 µg/mL and an MIC (Proteus vulgaris, 9416) of 6.3 µg/mL. The MIC [6] was greater than 100 µg/mL, the MIC [7] was 50 µg/mL and the MIC (Salmonella typhosa, 1195) was 3.1 µg/mL. It also gave an MIC [8] of 3.1 µg/mL, an MIC (Shigella sonnei, 8449) of 3.1 µg/mL and an MIC [9] greater than 100 µg/mL. The MIC [10] was greater than 100 µg/mL, the MIC [11] was greater than 100 µg/mL and the MIC [12] was greater than 100 µg/mL. For the same compound, the MIC [13] was greater than 100 µg/mL, the MIC [14] was 3.1 µg/mL and the MIC (Micrococcus luteus, 2495) was 100 µg/mL. The MIC [15] was 12.5 µg/mL.

Compound COC1(NC(=O)Cc2ccccc2)C(=O)N(S(=O)(=O)O)C1C (stereo not drawn) [Example 29, (3S-trans)-3-Methoxy-4-methyl-2-oxo-3-[(phenylacetyl)-amino]-1-azetidinesulfonic acid, potassium salt] has an MIC [1] greater than 100 µg/mL, an MIC [2] greater than 100 µg/mL and an MIC [3] greater than 100 µg/mL. The MIC (Escherichia coli, 10857) was greater than 100 µg/mL, the MIC (Escherichia coli, 10896) was 100 µg/mL and the MIC (Escherichia coli, 10909) was 100 µg/mL. It also gave an MIC (Escherichia coli, 8294) greater than 100 µg/mL, an MIC [4] greater than 100 µg/mL and an MIC [5] of 100 µg/mL. The MIC (Proteus mirabilis, 3855) was greater than 100 µg/mL, the MIC (Proteus rettgeri, 8479) was greater than 100 µg/mL and the MIC (Proteus vulgaris, 9416) was greater than 100 µg/mL. It also gave an MIC [6] greater than 100 µg/mL, an MIC [7] greater than 100 µg/mL and an MIC (Salmonella typhosa, 1195) greater than 100 µg/mL. The MIC [8] was greater than 100 µg/mL, the MIC (Shigella sonnei, 8449) was greater than 100 µg/mL and the MIC [9] was greater than 100 µg/mL. It also gave an MIC [10] greater than 100 µg/mL, an MIC [11] greater than 100 µg/mL and an MIC [12] greater than 100 µg/mL. The MIC [13] was greater than 100 µg/mL, the MIC [14] was greater than 100 µg/mL and the MIC (Micrococcus luteus, 2495) was greater than 100 µg/mL. For the same compound, the MIC [15] was greater than 100 µg/mL.

C[C@H]1[C@H](NC(=O)/C(=N\OCC(=O)O)c2csc(N)n2)C(=O)N1S(=O)(=O)O [Example 31, [3S-[3α(Z),4β]]-3-[[[(Carboxymethoxy)imino](2-amino-4-thiazolyl)acetyl]amino]-4-methyl-2-oxo-l-azetidinesulfonic acid, dipotassium salt] was tested, and the MIC [1] was 100 µg/mL, the MIC [2] was 0.2 µg/mL and the MIC [3] was 0.4 µg/mL. The MIC (Escherichia coli, 10857) was 0.2 µg/mL, the MIC (Escherichia coli, 10896) was 0.1 µg/mL and the MIC (Escherichia coli, 10909) was 0.1 µg/mL. For the same compound, the MIC (Escherichia coli, 8294) was 0.4 µg/mL, the MIC [4] was 0.8 µg/mL and the MIC [5] was 0.2 µg/mL. The MIC (Proteus mirabilis, 3855) was 0.2 µg/mL, the MIC (Proteus rettgeri, 8479) was 0.05 µg/mL and the MIC (Proteus vulgaris, 9416) was 0.2 µg/mL. For the same compound, the MIC [6] was 12.5 µg/mL, the MIC [7] was 0.8 µg/mL and the MIC (Salmonella typhosa, 1195) was 0.2 µg/mL. The MIC [8] was 0.4 µg/mL, the MIC (Shigella sonnei, 8449) was 0.4 µg/mL and the MIC [9] was greater than 100 µg/mL. It also gave an MIC [10] greater than 100 µg/mL, an MIC [11] greater than 100 µg/mL and an MIC [12] greater than 100 µg/mL. It also gave an MIC [13] greater than 100 µg/mL, an MIC [14] of 0.2 µg/mL and an MIC (Micrococcus luteus, 2495) greater than 100 µg/mL. It also gave an MIC [15] of 100 µg/mL.

In the case of CC1C(NC(=O)C(NC(=O)N2CCN(N)C(=O)C2=O)c2ccccc2)C(=O)N1S(=O)(=O)O (stereo not drawn) [Example 32, [3S(R*)]-3-[[[[(4-Amino-2,3-dioxo-1-piperazinyl)-carbonyl]amino]phenylacetyl]amino]-4-methyl-2-oxo-l-azetidinesulfonic acid, potassium salt], the MIC [1] is reported as 50 µg/mL, the MIC [2] is reported as 3.1 µg/mL and the MIC [3] is reported as 6.3 µg/mL. The MIC (Escherichia coli, 10857) was 0.4 µg/mL, the MIC (Escherichia coli, 10896) was 12.5 µg/mL and the MIC (Escherichia coli, 10909) was 0.8 µg/mL. For the same compound, the MIC (Escherichia coli, 8294) was 3.1 µg/mL, the MIC [4] was 1.6 µg/mL and the MIC [5] was 0.2 µg/mL. The MIC (Proteus mirabilis, 3855) was 0.4 µg/mL, the MIC (Proteus rettgeri, 8479) was 0.4 µg/mL and the MIC (Proteus vulgaris, 9416) was 0.2 µg/mL. For the same compound, the MIC [6] was 50 µg/mL, the MIC [7] was 6.3 µg/mL and the MIC (Salmonella typhosa, 1195) was 0.2 µg/mL. The MIC [8] was 3.1 µg/mL, the MIC (Shigella sonnei, 8449) was 6.3 µg/mL and the MIC [9] was greater than 100 µg/mL. It also gave an MIC [10] of 25 µg/mL, an MIC [11] of 12.5 µg/mL and an MIC [12] of 25 µg/mL. The MIC [13] was greater than 100 µg/mL, the MIC [14] was 6.3 µg/mL and the MIC (Micrococcus luteus, 2495) was 6.3 µg/mL. The MIC [15] was 6.3 µg/mL.
